Measurements as given in ChEMBL document CHEMBL1148078, “Isolation of Spongosine and 2'-Deoxyspongosine from a Western Australian Sponge of the Order Hadromerida (Tethyidae)” (J Nat Prod, 1994).
The source made the active and inactive calls.

Experiments:
Assay type in all cases: functional, organism-based
[1] = test system: Saccharomyces pastorianus; experiment: Antimicrobial activity against Saccharomyces carlsbergensis at 200 ug/disk by disk diffusion assay
[2] = test system: Candida albicans; experiment: Antimicrobial activity against Candida albicans at 200 ug/disk by disk diffusion assay
[3] = test system: Staphylococcus aureus; experiment: Antimicrobial activity against Staphylococcus aureus at 200 ug/disk by disk diffusion assay
[4] = test system: Escherichia coli; experiment: Antimicrobial activity against Escherichia coli at 200 ug/disk by disk diffusion assay
[5] = test system: Pseudomonas aeruginosa; experiment: Antimicrobial activity against Pseudomonas aeruginosa at 200 ug/disk by disk diffusion assay

Measured: Activity

COc1nc(N)c2ncn([C@H]3C[C@H](O)[C@@H](CO)O3)c2n1
inactive: all assays above

COc1nc(N)c2ncn([C@@H]3O[C@H](CO)[C@@H](O)[C@H]3O)c2n1
inactive: all assays above
